Data published in US10253041B2, “7-phenylethylamino-4H-pyrimido[4,5-d][1,3]oxazin-2-one compounds and their use as mutant IDH1 inhibitors” (Eli Lilly and Company, priority 2015, dated 2019).
Where two headings read alike, the source gives them in different places.

Assays:
IDH2/R172K = target: T1, IDH2/R172K (Homo sapiens, UniProt P48735, R172K); assay: Biochemical assay for IDH2 R172K mutant enzyme (2HG by RapidFire MS); conditions: mean ± standard deviation of the mean; 90 minutes reaction
T1 construct: His-tag (N); made in house; host or cells: E. coli
T1 sequence (P48735 40-452 R172K): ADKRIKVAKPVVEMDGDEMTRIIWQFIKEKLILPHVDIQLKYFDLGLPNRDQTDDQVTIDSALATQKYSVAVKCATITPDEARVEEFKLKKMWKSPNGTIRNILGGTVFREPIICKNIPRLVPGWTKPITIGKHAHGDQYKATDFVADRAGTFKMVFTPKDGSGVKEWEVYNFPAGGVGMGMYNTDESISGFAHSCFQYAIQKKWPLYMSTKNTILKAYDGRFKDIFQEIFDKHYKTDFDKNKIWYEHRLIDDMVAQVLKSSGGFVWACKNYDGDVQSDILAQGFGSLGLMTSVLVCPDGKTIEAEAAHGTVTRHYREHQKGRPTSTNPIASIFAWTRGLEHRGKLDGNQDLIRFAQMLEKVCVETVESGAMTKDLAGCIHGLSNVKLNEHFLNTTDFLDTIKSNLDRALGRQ
Description: (§1) IDH1-R132H, IDH1-R132C, IDH2-R172K and IDH2-R140Q mutant enzymes catalyze the conversion of αKG to 2HG. 2HG is analyzed using in-line solid phase extraction and mass spectrometry. This analysis is carried out in a RapidFire® instrument coupled to a 6460 triple quadrupole mass spectrometer (G6460A Agilent).
(§2) IDH1 mutant (R132H and R132C) and IDH2 mutant (R140Q and R172K) proteins containing N-terminal His-tag are expressed in E. coli and purified using nickel affinity chromatography. The enzyme assays are carried out in V-bottom 96 well polypropylene plates containing 100 mM Tris-HCl buffer, 1 mM DTT, 0.005% TRITON™ X-100, 120 mM NaCl. For IDH1 R132H, α-ketoglutarate, NADPH and MnCl2 are included at final concentrations of 300 μM, 2.5 μM and 300 μM respectively. For IDH1 R132C, α-ketoglutarate, NADPH and MnCl2 are included at final concentrations of 100 μM, 10 μM and 100 μM respectively. For IDH2 R172K, α-ketoglutarate, NADPH and MnCl2 are included at final concentrations of 150 μM, 10 μM and 150 μM respectively. For IDH2 R140Q, α-ketoglutarate, NADPH and MnCl2 are included at final concentrations of 3000 μM, 10 μM and 100 μM respectively. Final pH=7.0. Test compound dissolved in DMSO stock is diluted in the reaction mix at a final DMSO concentration of 4%. Compounds are tested in dose-response format. The assay is started by addition of enzyme. Enzymes are used at the following final concentrations: IDH1 R132H, 2 nM; IDH1 R132C, 0.5 nM; IDH2 R172K, 1.2 nM; IDH2 R140Q, 1.2 nM. After 90 minutes the reaction is quenched by adding ACN (50:50) containing 3-hydroxy-1,5-pentanedioic-2,2,3,4,4-d5 acid (5d5-3HG) as an internal standard for mass spectrometry analysis and quantitation of reaction product. 2-Hydroxyglutarate (2HG) in quenched samples is separated using strong anionic exchange column chromatography (Phenomenex Strata-X-A SecurityGuard) and analyzed by mass spectrometry in a 6460 triple quadrupole mass spectrometer (G6460A Agilent). The 2HG signal detected is transformed into an analyte concentration using a calibration curve generated using known 2HG concentrations. […] IC50 values are obtained from the individual % inhibition values at different compound concentrations using a 4-parameter equation. These calculations are carried out using Activity Base (IDBS) or Screener (Genedata) data analysis programs.

[1] = system: IDH1 mutant R132C in fibrosarcoma cell line HT1080; assay: HT1080 cell assay (intracellular 2HG and αKG); type: cell-based; conditions: Homo sapiens; for IC50: 1 hour + 18 hours incubation
Description: To test the cellular inhibition of IDH1 mutant R132C, the fibrosarcoma cell line HT1080 (purchased from ATCC) is used. For testing cell-based inhibition of the R132H mutation, the U87MG glioma cell line (ATCC) was stably transfected with a DNA construct expressing the R132H mutant enzyme.
Fifteen thousand cells are plated in poly-D-lys coated 96 well plates (15,000 cells/well) 18-24 hours prior to treatment with compounds. Four hours prior to compound treatment, cells are glutamine-starved by removing normal media and replacing with glutamine-free media. Following starvation, cells are then treated with different concentrations of test compounds (20 μM to 1 nM) dissolved in glutamine free media containing DMSO at a final concentration of 0.2%. The initial compound incubation is for 1 hour at 37° C./5% CO2. After 1 hour, glutamine is added to a final 2 mM concentration and the treated cells are then incubated for a further 18 hours at 37° C./5% CO2. Following the 18 hour incubation, intracellular 2HG and αKG are analyzed in cell lysates. Lysates are prepared following removal of media and addition of buffer containing 25 mM Tris-HCl pH 7.5, 150 mM NaCl, 1 mM EDTA, 1 mM EGTA/1% Triton-X 100 to the cells. An aliquot of lysate is added to a mix of d6-αKG and d5-3HG as internal standards and the mixture is treated with O-benzylhydroxylamine in the presence of N-(3-dimethylaminopropyl)-N′-ethylcarbodiimide hydrochloride (EDC) and pyridine. Analyte derivatives are then extracted with EtOAc, dried, and then reconstituted with 50% MeOH in H2O. Samples prepared as described are injected into the HPLC to separate 2HG and αKG derivatives (and corresponding internal standards) using a reverse phase chromatography in a C18 column. Analysis of the samples is carried out using a 6460 triple quadrupole mass spectrometer (G6460A Agilent). The 2HG and αKG signals detected are transformed into analyte concentration using the ratio of αKG/d6-αKG and the ratio of 2HG/d5-3HG that is extrapolated within a calibration curve. Percent inhibition for each individual sample is obtained after normalizing calculated 2HG or aKG concentration to maximum and minimum references obtained in the presence and in the absence of glutamine during cell treatment with compounds. IC50 values are obtained from individual % inhibition using a sigmoidal dose-response 4-parameter equation. These calculations are carried out automatically using Activity Base (IDBS) or Screener (Genedata) data analysis programs.

IDH1/R132H = target: T2, IDH1/R132H (Homo sapiens, UniProt O75874, R132H); assay: Biochemical assay for IDH1 R132H mutant enzyme (2HG by RapidFire MS); conditions: mean ± standard deviation of the mean; 90 minutes reaction
T2 construct: His-tag (N); made in house; host or cells: E. coli
Description: as §1, §2

IDH1/R132C = target: T3, IDH1/R132C (Homo sapiens, UniProt O75874, R132C); assay: Biochemical assay for IDH1 R132C mutant enzyme (2HG by RapidFire MS); conditions: mean ± standard deviation of the mean; 90 minutes reaction
T3 construct: His-tag (N); made in house; host or cells: E. coli
Description: as §1, §2

[2] = HT-1080, 19 h, intracellular 2HG, read-out: HT1080 (R132C, 2-hydroxyglutarate) IC50
[3] = HT-1080, intracellular αKG, read-out: HT1080 (R132C, αKG) IC50

T3 sequence (O75874 whole entry R132C): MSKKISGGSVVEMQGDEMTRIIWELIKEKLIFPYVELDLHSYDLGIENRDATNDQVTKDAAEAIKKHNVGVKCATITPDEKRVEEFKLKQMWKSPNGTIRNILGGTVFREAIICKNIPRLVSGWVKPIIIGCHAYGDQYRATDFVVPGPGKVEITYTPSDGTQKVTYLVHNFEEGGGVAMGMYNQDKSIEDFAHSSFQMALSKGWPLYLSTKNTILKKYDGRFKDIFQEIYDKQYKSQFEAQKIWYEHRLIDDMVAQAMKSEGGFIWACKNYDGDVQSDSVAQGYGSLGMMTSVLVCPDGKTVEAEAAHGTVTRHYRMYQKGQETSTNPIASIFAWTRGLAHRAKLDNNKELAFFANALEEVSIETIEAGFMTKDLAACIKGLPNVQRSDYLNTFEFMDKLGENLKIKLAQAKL
T2 sequence (O75874 whole entry R132H): as the sequence (O75874 whole entry R132C) above, with C132H counted along it

Row | Compound | IC50 (IDH2/R172K) | IC50 [1, 2] | IC50 [1, 3] | IC50 (IDH1/R132H) | IC50 (IDH1/R132C) | HT1080 (R132C, 2-hydroxyglutarate) IC50 ([1]; HT-1080, 19 h, read-out: HT1080 (R132C, 2-hydroxyglutarate) IC50 (μM), intracellular 2HG, 1 hour + 18 hours incubation)
1 | C=CC(=O)N1CCC(N(C)Cc2ccc([C@H](C)Nc3ncc4c(n3)N(CC)C(=O)OC4)cc2)CC1 [Example 12, 1-Ethyl-7-[[(1S)-1-[4-[[methyl-(1-prop-2-enoyl-4-piperidyl)amino]-methyl]phenyl]ethyl]amino]-4H-pyrimido[4,5-d][1,3]oxazin-2-one] | 25300 nM | 120 ± 20 nM | > 20000 nM | 515 ± 86 nM | 457 ± 229 nM | 
2 | C=CC(=O)N1CC(OCc2ccc([C@H](C)Nc3ncc4c(n3)N(CC(C)C)C(=O)OC4)cc2)C1 [Example 13, 1-Isobutyl-7-[[(1S)-1-[4-[(1-prop-2-enoylazetidin-3-yl)oxymethyl]phenyl]ethyl]amino]-4H-pyrimido[4,5-d][1,3]oxazin-2-one] | 5340 nM | 128 ± 9 nM | > 20000 nM | 77.7 ± 19.6 nM | 92.4 ± 15.4 nM | 
3 | C=CC(=O)N1CC2(CN(Cc3ccc([C@H](C)Nc4ncc5c(n4)N(CC)C(=O)OC5)cc3)C2)C1 [Example 14, 1-Ethyl-7-[[(1S)-1-[4-[(2-prop-2-enoyl-2,6-diazaspiro[3.3]heptan-6-yl)methyl]phenyl]ethyl]amino]-4H-pyrimido[4,5-d][1,3]oxazin-2-one] | 13000 nM | 89.8 ± 55.2 nM | > 20000 nM | 81.9 ± 54.1 nM | 82.5 ± 58.3 nM | 
4 | C=CC(=O)N1CC2(CN(Cc3ccc([C@H](C)Nc4ncc5c(n4)N(C(C)C)C(=O)OC5)cc3)C2)C1 [Example 15, 1-Isopropyl-7-[[(1S)-1-[4-[(2-prop-2-enoyl-2,6-diazaspiro[3.3]heptan-6-yl)methyl]phenyl]ethyl]amino]-4H-pyrimido[4,5-d][1,3]oxazin-2-one] | 10400 nM |  | > 20000 nM | 128 ± 9 nM | 109 ± 54 nM | 0.0278 ± 0.00623 µM
5 | C=CC(=O)N1CCN(Cc2ccc([C@H](C)Nc3ncc4c(n3)N(CC)C(=O)OC4)cc2F)CC1 [Example 16, 1-Ethyl-7-[[(1S)-1-[3-fluoro-4-[(4-prop-2-enoylpiperazin-1-yl)methyl]phenyl]ethyl]amino]-4H-pyrimido[4,5-d][1,3]oxazin-2-one] | 4100 nM | 34.9 ± 17.1 nM | > 20000 nM | 116 ± 15 nM | 137 ± 44 nM | 
6 | C=CC(=O)N1CC(COc2ccc([C@H](C)Nc3ncc4c(n3)N(CC)C(=O)OC4)cc2)C1 [Example 17, 1-Ethyl-7-[[(1S)-1-[4-[(1-prop-2-enoylazetidin-3-yl)methoxy]phenyl]ethyl]amino]-4H-pyrimido[4,5-d][1,3]oxazin-2-one] | 1740 nM | 99 ± 35.1 nM | > 20000 nM | 114 ± 38 nM | 215 ± 86 nM | 
7 | C=CC(=O)N1CCN(Cc2ccc([C@H](C)Nc3ncc4c(n3)N(C)C(=O)OC4)cc2)CC1 [Example 19, 1-Methyl-7-[[(1S)-1-[4-[(4-prop-2-enoylpiperazin-1-yl)methyl]phenyl]ethyl]amino]-4H-pyrimido[4,5-d][1,3]oxazin-2-one] | 23000 ± 12400 nM |  | > 20000 nM | 776 ± 210 nM | 1580 ± 340 nM | 
8 | C=CC(=O)N1CCN(Cc2ccc([C@H](C)Nc3ncc4c(n3)N(CC(F)F)C(=O)OC4)cc2)CC1 [Example 20, 1-(2,2-difluoroethyl)-7-[[(1S)-1-[4-[(4-prop-2-enoylpiperazin-1-yl)methyl]phenyl]ethyl]amino]-4H-pyrimido[4,5-d][1,3]oxazin-2-one] | 6780 ± 2400 nM | 95.5 ± 24.9 nM | > 20000 nM | 180 ± 33 nM | 189 ± 33 nM | 
9 | C=CC(=O)N1CCN(Cc2ccc([C@H](C)Nc3ncc4c(n3)N(CCF)C(=O)OC4)cc2)CC1 [Example 21, 1-(2-fluoroethyl)-7-[[(1S)-1-[4-[(4-prop-2-enoylpiperazin-1-yl)methyl]phenyl]ethyl]amino]-4H-pyrimido[4,5-d][1,3]oxazin-2-one] | 10400 ± 7000 nM | 408 nM | > 20000 nM | 323 ± 76 nM | 485 ± 17 nM | 
